The values that follow come from patent US20170210723A1, “MOLECULES HAVING PESTICIDAL UTILITY, AND INTERMEDIATES, COMPOSITIONS, AND PROCESSES, RELATED THERETO” (priority 2016, published 2017).

Holding throughout (assay type): in vivo
For data set [1], the system named is Beet Armyworm (Spodoptera exigua). Kind of data set: Bioassays on BAW, 128-well diet tray assay. Conditions: for mortality at 50 µg/cm2 / mortality at 0.05 µg/cm2 / mortality at 0.5 µg/cm2 / mortality at 5 µg/cm2: Spodoptera exigua; for mortality at 50 µg/cm2: 168 h, read-out: BAW % Control (or Mortality) rating; for mortality at 0.05 µg/cm2: 0.05 μg/cm^2; for mortality at 0.05 µg/cm2 / mortality at 0.5 µg/cm2 / mortality at 5 µg/cm2: read-out: BAW Percent control (or mortality); for mortality at 0.5 µg/cm2: 0.5 μg/cm^2; for mortality at 5 µg/cm2: 5 μg/cm^2. As for the experimental part:
Bioassays on BAW were conducted using a 128-well diet tray assay. One to five second instar BAW larvae were placed in each well (3 mL) of the diet tray that had been previously filled with 1 mL of artificial diet to which 50 μg/cm^2 of the test molecule (dissolved in 50 μL of 90:10 acetone-water mixture) had been applied (to each of eight wells) and then allowed to dry. Trays were covered with a clear self-adhesive cover and held at 25° C., 14:10 light-dark for five to seven days. Percent mortality was recorded for the larvae in each well; activity in the eight wells was then averaged. The results are indicated in the table entitled “Table ABC: Biological Results” (See Table Section).
(§1) Bioassays on BAW and CL were conducted according to the procedures outlined in Example A: Bioassays on Beet Armyworm (“BAW”) and Cabbage Looper (“CL”) using the indicated concentrations.

The test system of data set [2] is Cabbage Looper (Trichoplusia ni). Kind of data set: Bioassays on CL, 128-well diet tray assay. To be noted: for mortality at 50 µg/cm2 / mortality at 0.05 µg/cm2 / mortality at 0.5 µg/cm2 / mortality at 5 µg/cm2: Trichoplusia ni; for mortality at 50 µg/cm2: 168 h, read-out: CL % Control (or Mortality) rating; for mortality at 0.05 µg/cm2: 0.05 μg/cm^2; for mortality at 0.05 µg/cm2 / mortality at 0.5 µg/cm2 / mortality at 5 µg/cm2: read-out: CL Percent control (or mortality); for mortality at 0.5 µg/cm2: 0.5 μg/cm^2; for mortality at 5 µg/cm2: 5 μg/cm^2. As for the experimental part:
Bioassays on CL were conducted using a 128-well diet tray assay.
One to five second instar CL larvae were placed in each well (3 mL) of the diet tray that had been previously filled with 1 mL of artificial diet to which 50 μg/cm^2 of the test molecule (dissolved in 50 μL of 90:10 acetone-water mixture) had been applied (to each of eight wells) and then allowed to dry. Trays were covered with a clear self-adhesive cover and held at 25° C., 14:10 light-dark for five to seven days. Percent mortality was recorded for the larvae in each well; activity in the eight wells was then averaged. The results are indicated in the table entitled “Table ABC: Biological Results” (See Table Section).
as §1

Data set [3] has as its system Yellow Fever Mosquito (Aedes aegypti). Put plainly: Bioassays on Yellow Fever Mosquito larvae, 96-well plate. Conditions: from 4000 ppm DMSO master plate, about 1 day-old larvae, 3 days. As for the experimental part:
Master plates containing 400 μg of a molecule dissolved in 100 μL of dimethyl sulfoxide (DMSO) (equivalent to a 4000 ppm solution) are used. A master plate of assembled molecules contains 15 μL per well. To this plate, 135 μL of a 90:10 water:acetone mixture is added to each well. A robot (Biomek® NXP Laboratory Automation Workstation) is programmed to dispense 15 μL aspirations from the master plate into an empty 96-well shallow plate (“daughter” plate). There are 6 reps (“daughter” plates) created per master. The created daughter plates are then immediately infested with YFM larvae.
The day before plates are to be treated, mosquito eggs are placed in Millipore water containing liver powder to begin hatching (4 g. into 400 mL). After the daughter plates are created using the robot, they are infested with 220 μL of the liver powder/larval mosquito mixture (about 1 day-old larvae). After plates are infested with mosquito larvae, a non-evaporative lid is used to cover the plate to reduce drying. Plates are held at room temperature for 3 days prior to grading. After 3 days, each well is observed and scored based on mortality. The results are indicated in the table entitled “Table ABC: Biological Results” (See Table Section). AGRICULTURALLY ACCEPTABLE ACID ADDITION SALTS, SALT DERIVATIVES, SOLVATES, ESTER DERIVATIVES, POLYMORPHS, ISOTOPES, AND RADIONUCLIDES

Setting [4] is: 50 μg/cm^2 on artificial diet, second instar larvae, five to seven days.

As for `O=C(NCCSCC(F)(F)F)c1ccc(/C=C/C(c2cc(Cl)c(Cl)c(Cl)c2)C(F)(F)F)cc1Br` (centres unmarked) [F1, (E)-2-bromo-4-(4,4,4-trifluoro-3-(3,4,5-trichlorophenyl)but-1-en-1-yl)-N-(2-((2,2,2-trifluoroethyl)thio)ethyl)benzamide], the mortality at 50 µg/cm2 in data set [1] (setting [4]) and in data set [2] (setting [4]) was 50 to 100% in each case. Further, the “YFM % Control (or Mortality) rating” value in data set [3] is reported as “A (80-100)”.
As to `O=C(NCC[S+]([O-])Cc1ccccc1)c1ccc(/C=C/C(c2cc(Cl)c(Cl)c(Cl)c2)C(F)(F)F)cc1Br` (centres unmarked) [F2, (E)-N-(2-(Benzylsulfinyl)ethyl)-2-bromo-4-(4,4,4-trifluoro-3-(3,4,5-trichlorophenyl)but-1-en-1-yl)benzamide], the mortality at 50 µg/cm2 in data set [1] (setting [4]) and in data set [2] (setting [4]) was 50 to 100% each time. The “YFM % Control (or Mortality) rating” value in data set [3] is given as “A (80-100)”.
As to `O=C(NCC[S+]([O-])CC(F)(F)F)c1ccc(/C=C/C(c2cc(Cl)c(Cl)c(Cl)c2)C(F)(F)F)cc1Br` (centres unmarked) [F3, (E)-2-bromo-4-(4,4,4-trifluoro-3-(3,4,5-trichlorophenyl)but-1-en-1-yl)-N-(2-((2,2,2-trifluoroethyl)sulfinyl)ethyl)benzamide], the mortality at 50 µg/cm2 in data set [1] (setting [4]) and in data set [2] (setting [4]) was 50 to 100% in each case. The “YFM % Control (or Mortality) rating” value in data set [3] was “B (More than 0-Less than 80)”.
Turning to `CC[C@H](CSCCC(F)(F)F)NC(=O)c1ccc(/C=C/C(c2cc(Cl)c(Cl)c(Cl)c2)C(F)(F)F)cc1C(F)(F)F` (stereo partly drawn) [F11, 4-((E)-4,4,4-trifluoro-3-(3,4,5-trichlorophenyl)but-1-en-1-yl)-2-(trifluoromethyl)-N—((R)-1-((3,3,3-trifluoropropyl)thio)butan-2-yl)benzamide], the mortality at 50 µg/cm2 in data set [1] (setting [4]) and in data set [2] (setting [4]) was 50 to 100% each time. The “YFM % Control (or Mortality) rating” value in data set [3] was “B (More than 0-Less than 80)”.
Regarding `CC[C@H](CSCC(F)(F)F)NC(=O)c1ccc(/C=C/C(c2cc(Cl)c(Cl)c(Cl)c2)C(F)(F)F)cc1C(F)(F)F` (stereo partly drawn) [F12, 4-((E)-4,4,4-Trifluoro-3-(3,4,5-trichlorophenyl)but-1-en-1-yl)-N—((R)-1-((2,2,2-trifluoroethyl)thio)butan-2-yl)-2-(trifluoromethyl)benzamide], the mortality at 50 µg/cm2 in data set [1] (setting [4]) and in data set [2] (setting [4]) was 50 to 100% in each case. The “YFM % Control (or Mortality) rating” value in data set [3] was “A (80-100)”.
With `CC[C@H](CSCC1CC1(F)F)NC(=O)c1ccc(/C=C/C(c2cc(Cl)c(Cl)c(Cl)c2)C(F)(F)F)cc1C(F)(F)F` (stereo partly drawn) [F13, N-((2R)-1-(((2,2-Difluorocyclopropyl)methyl)thio)butan-2-yl)-4-((E)-4,4,4-trifluoro-3-(3,4,5-trichlorophenyl)but-1-en-1-yl)-2-(trifluoromethyl)benzamide], the mortality at 50 µg/cm2 in data set [1] (setting [4]) and in data set [2] (setting [4]) was 50 to 100% throughout. Besides, the “YFM % Control (or Mortality) rating” value in data set [3] is “A (80-100)”.
Regarding `CC(C)[C@H](CSCC(F)(F)F)NC(=O)c1ccc(/C=C/C(c2cc(Cl)c(Cl)c(Cl)c2)C(F)(F)F)cc1C(F)(F)F` (stereo partly drawn) [F14, N—((R)-3-Methyl-1-((2,2,2-trifluoroethyl)thio)butan-2-yl)-4-((E)-4,4,4-trifluoro-3-(3,4,5-trichlorophenyl)but-1-en-1-yl)-2-(trifluoromethyl)benzamide], the mortality at 50 µg/cm2 in data set [1] (setting [4]) and in data set [2] (setting [4]) was 50 to 100% each time. Besides, the “YFM % Control (or Mortality) rating” value in data set [3] was “A (80-100)”.
On to `CC[C@H](CS(=O)(=O)CCC(F)(F)F)NC(=O)c1ccc(/C=C/C(c2cc(Cl)c(Cl)c(Cl)c2)C(F)(F)F)cc1C(F)(F)F` (stereo partly drawn) [F21, 4-((E)-4,4,4-Trifluoro-3-(3,4,5-trichlorophenyl)but-1-en-1-yl)-2-(trifluoromethyl)-N—((R)-1-((3,3,3-trifluoropropyl)sulfonyl)butan-2-yl)benzamide], for which the mortality at 50 µg/cm2 in data set [1] (setting [4]) and in data set [2] (setting [4]) was 50 to 100% each time. The “YFM % Control (or Mortality) rating” value in data set [3] is reported as “A (80-100)”.
For `C[C@H](CS(=O)(=O)CC(F)(F)F)NC(=O)c1ccc(/C=C/C(c2cc(Cl)c(Cl)c(Cl)c2)C(F)(F)F)cc1C(F)(F)F` (stereo partly drawn) [F24, 4-((E)-4,4,4-Trifluoro-3-(3,4,5-trichlorophenyl)but-1-en-1-yl)-N—((R)-1-((2,2,2-trifluoroethyl)sulfonyl)propan-2-yl)-2-(trifluoromethyl)benzamide], in data set [1] (setting [4]), the mortality at 50 µg/cm2 fell in the range of 50 to 100%. Moreover, in data set [1], the mortality at 0.05 µg/cm2 stood at 100%, the mortality at 0.5 µg/cm2 was found to be 100% and the mortality at 5 µg/cm2 worked out at 100%. The mortality at 50 µg/cm2 in data set [2] (setting [4]) lay in the range of 50 to 100%. For the same compound, in data set [2], the mortality at 0.05 µg/cm2 amounted to 100%, the mortality at 0.5 µg/cm2 came out at 100% and the mortality at 5 µg/cm2 was found to be 100%. The “YFM % Control (or Mortality) rating” value in data set [3] is “A (80-100)”.
In the case of `CS(=O)(=O)CC[C@@H](NC(=O)c1ccc(/C=C/C(c2cc(Cl)c(Cl)c(Cl)c2)C(F)(F)F)cc1C(F)(F)F)C(=O)NCC(F)(F)F` (stereo partly drawn) [F27, N—((R)-4-(Methylsulfonyl)-1-oxo-1-((2,2,2-trifluoroethyl)amino)butan-2-yl)-4-((E)-4,4,4-trifluoro-3-(3,4,5-trichlorophenyl)but-1-en-1-yl)-2-(trifluoromethyl)benzamide], the “BAW % Control (or Mortality) rating” value in data set [1] (setting [4]) is listed as “A (50-100)”. In addition, the “CL % Control (or Mortality) rating” value in data set [2] (setting [4]) is listed as “A (50-100)”. In data set [3], the “YFM % Control (or Mortality) rating” value was “A (80-100)”.
`C[C@H](CSCC(F)(F)F)NC(=O)c1ccc(/C=C/C(c2ccc(Cl)c(Cl)c2)C(F)(F)F)cc1Br` (stereo partly drawn) [F137, 2-Bromo-4-((E)-3-(3,4-dichlorophenyl)-4,4,4-trifluorobut-1-en-1-yl)-N—((R)-1-((2,2,2-trifluoroethyl)thio)propan-2-yl)benzamide]: the mortality at 50 µg/cm2 in data set [1] (setting [4]) and in data set [2] (setting [4]) was 50 to 100% each time.
On to `C[C@H](CSCC(F)(F)F)NC(=O)c1ccc(/C=C/C(c2cc(Cl)c(Cl)c(Cl)c2)C(F)(F)F)cc1` (stereo partly drawn) [FC74, 4-((E)-4,4,4-Trifluoro-3-(3,4,5-trichlorophenyl)but-1-en-1-yl)-N—((R)-1-((2,2,2-trifluoroethyl)thio)propan-2-yl)benzamide], for which the mortality at 50 µg/cm2 in data set [1] (setting [4]) and in data set [2] (setting [4]) was 50 to 100% each time.
As for `C[C@H](C[S+]([O-])CC(F)(F)F)NC(=O)c1ccc(/C=C/C(c2cc(Cl)c(Cl)c(Cl)c2)C(F)(F)F)cc1` (stereo partly drawn) [FC77, 4-((E)-4,4,4-Trifluoro-3-(3,4,5-trichlorophenyl)but-1-en-1-yl)-N-((2R)-1-((2,2,2-trifluoroethyl)sulfinyl)propan-2-yl)benzamide], the mortality at 50 µg/cm2 in data set [1] (setting [4]) and in data set [2] (setting [4]) was 50 to 100% each time.
As to `C[C@H](CS(=O)(=O)CC(F)(F)F)NC(=O)c1ccc(/C=C/C(c2cc(Cl)c(Cl)c(Cl)c2)C(F)(F)F)cc1` (stereo partly drawn) [FC78, 4-((E)-4,4,4-Trifluoro-3-(3,4,5-trichlorophenyl)but-1-en-1-yl)-N—((R)-1-((2,2,2-trifluoroethyl)sulfonyl)propan-2-yl)benzamide], in data set [1] (setting [4]), the mortality at 50 µg/cm2 was 50 to 100%. Also, in data set [1], the mortality at 0.05 µg/cm2 is 0%, the mortality at 0.5 µg/cm2 came out at 19% and the mortality at 5 µg/cm2 worked out at 100%. The mortality at 50 µg/cm2 in data set [2] (setting [4]) lay in the range of 50 to 100%. Further, in data set [2], the mortality at 0.05 µg/cm2 was found to be 0%, the mortality at 0.5 µg/cm2 turned out to be 7% and the mortality at 5 µg/cm2 came to 100%.
